The test system of series [1] is triple-negative breast cancer. The series is described as follows: Phase 3 study of ganetespib in combination with docetaxel. The following applies: ganetespib 150 mg/m^2 in combination with docetaxel 75 mg/m^2. It counts as in vivo, patients. From the text:
This is an open-label, multicenter, randomized Phase 3 study of patients with triple-negative breast cancer (TNBC). Eligible patients are previously untreated for their advanced or metastatic disease and have measurable disease as defined by Response Evaluation Criteria in Solid Tumors (RECIST). Patients are randomized in a 1:1 ratio to receive either ganetespib in combination with docetaxel or docetaxel alone. The study compares the efficacy and tolerability of ganetespib in combination with docetaxel versus docetaxel alone.
The study enrolls approximately 300 patients over a planned 30-month period, and patients are randomized into one of two treatment arms:
Arm A (combination arm): Ganetespib 150 mg/m^2 in combination with docetaxel 75 mg/m^2. On Day 1 of each 3-week treatment cycle, ganetespib and docetaxel are administered as separate 1-hour intravenous infusions. Administration of ganetespib precedes the administration of docetaxel. There is a 1-hour “rest” period following the end of the ganetespib infusion prior to docetaxel infusion. Ganetespib 150 mg/m^2 is administered again on Day 15 of each cycle […]
Clinical and laboratory parameters are assessed to evaluate disease status and toxicity in all patients. […] The post-dose ECG is recorded within approximately 60 minutes after the end of the ganetespib infusion or as soon as feasible. […]

In series [2] the test system is inflammatory breast cancer. The series is described as follows: Phase 1b study of ganetespib with doxorubicin, cyclophosphamide and docetaxel. The class given is in vivo, patients. The settings on record: combination with doxorubicin. From the text:
This is an open-label, multicenter, Phase 1b, dose-escalation study in patients with locally advanced and inflammatory breast cancer. The purpose of the study is to test the safety and tolerability of ganetespib in patients with operable breast cancer.
Eligible patients must be treatment naïve with histologic confirmation of breast adenocarcinoma, and a tumor that is readily accessible for sequential biopsy. Before the study, patients undergo a complete physical examination, laboratory investigations, chest x-ray, a mammogram and a breast ultrasonography and other imaging studies (e.g., MRI, PET-CT, or mammogram) to determine the local extent of the disease. Abdominal CT scan is performed to exclude metastatic disease. The methods used to document baseline status must be consistently used throughout the study. Prior to entering the study, HER2 status of the tumor is determined by the local lab.
A pharmacodynamics phase consists of ganetespib single agent given at a dose of 150 mg/m^2 twice for 1 week prior to start of dose escalation phase (approximately on Days −7 and −4). A pre-dose tumor biopsy is obtained within 15+/−3 days prior to initiating treatment with ganetespib. A post-treatment […] is obtained on Day −4, to evaluate the effects of ganetespib on downstream effectors regulating tumor proliferation and survival, as well as potential effects on HIF1-transcriptional activity. […]

Regarding `CC(C)c1cc(-c2n[nH]c(=O)n2-c2ccc3c(ccn3C)c2)c(O)cc1O` [ganetespib], in series [1], the efficacy entry is given as “efficacious” and the safety profile entry is listed as “good safety profile”. In series [2], the efficacy entry was “efficacious” and the safety profile entry is recorded as “good safety profile”.
